Where two headings read alike, the source gives them in different places.
What was measured:
Format in all cases: in vivo
[1] = tested on: beet armyworm (Spodoptera exigua) larvae; test: Beet armyworm mortality on artificial diet (LAPHEG); conditions: 168 h, read-out: LAPHEG: % mortality against beet armyworm on artificial diet
Description: (§1) The compounds identified in TABLE 2 were prepared using the procedures illustrated in the previous examples and these compounds were tested against beet armyworm, mosquito, fruit fly, and cotton aphid using protocols described after.
(§2) Compounds were evaluated on mosquito (Aedes aegypti) larvae, beet armyworm (Spodoptera exigua) larvae, fruit fly (Drosophila melanogaster) adults and cotton aphid (Aphis gossypi). Newly hatched mosquito larvae (about 50 larvae/well) in 96-well microtiter plates in 230 ul of water containing powdered liver/yeast extract (1 gr/100 ml) were treated with 20 ppm solution of the test compound. Following treatment the plates were covered with a lid and mortality was determined three days after treatment. Beet armyworm eggs (about 5 per well) were placed on artificial diet (in a 96-well microtiter plate) treated with a 4000 ppm solution of a test compound in combination with piperonyl butoxide (in approximate ratio of 1:4). After infestation, the plates were covered with a lid and mortality was determined seven days following treatment. Five-day old fruit fly adults (about 5/well) were placed in deep-well microtiter plates containing 250 ul/well of a 2% agar-10% sucrose mixture that had been treated with a 4000 ppm solution of a test compound. Following infestation, the plates were covered with a lid and mortality was determined three days after treatment. Treatments for the mosquito and armyworm were replicated six times each, that of the fruit fly three times each.

[2] = tested on: fruit fly (Drosophila melanogaster) adults; test: Adult fruit fly mortality on artificial diet (DROSME); conditions: 72 h, read-out: DROSME: % mortality against adult fruit fly on artificial diet
Description: as §1, §2

[3] = tested on: mosquito (Aedes aegypti) larvae; test: Mosquito larvae mortality (AEDSAE); conditions: 72 h, read-out: AEDSAE: % mortality against mosquito larvae
Description: as §1, §2

[4] = tested on: cotton aphid (Aphis gossypi); test: Cotton aphid foliar spray test on squash (CA 200); conditions: 72 h, squash cotyledons, 3 days, Corrected % Control (Abbott), read-out: CA 200: % control against cotton aphid in foliar spray tests
Description: The compounds identified in TABLE 2 were prepared using the procedures illustrated in the previous examples and these compounds were tested against beet armyworm, mosquito, fruit fly, and cotton aphid using protocols described after. […]
Squash with fully expanded cotyledon leaves were trimmed to one cotyledon per plant and infested with cotton aphid (wingless adult and nymph) 1 day prior to chemical application.
Each plant is examined before chemical application to ensure proper infestation (ca. 30-70 aphids per plant). Compounds (3 mg) were dissolved in 3 mL of acetone:methanol (50:50) solvent, forming stock solutions of 1000 ppm. The stock solutions were then diluted with 0.025% Tween 20 (in H2O) to make […]. A hand-held Devilbiss sprayer was used to apply the spray solutions until runoff to both sides of the squash cotyledon leaves. Four plants (4 replications) were used for each concentration of each compound. Reference plants (solvent check) were sprayed with 0.025% Tween 20 only. Treated plants were held in a holding room for 3 days at approximately 23° C. and 40% RH before the number of live aphids on each plant was recorded. Insecticidal activity was measured by Corrected % Control using Abbott's correction formula and presented in TABLE 2: Corrected % Control=100*(X−Y)/X • where X=No. of live aphids on solvent check plants • Y=No. of live aphids on treated plants

[5] = 4000 μg/ml, with piperonyl butoxide (approx. 1:4), mortality seven days after treatment
[6] = 4000 μg/ml, mortality three days after treatment
[7] = 20 μg/ml, mortality three days after treatment

SMILES | mortality at 4000 µg/mL [1, 5] | mortality at 4000 µg/mL [2, 6] | mortality at 20 µg/mL [3, 7] | pest or weed control at 200 ppm [4] | mortality at 4000 µg/mL [1] | mortality at 4000 µg/mL [2] | mortality at 20 µg/mL [3]
N#Cc1cccc(CN2CCN(CCc3ccccc3)CC2)c1 [Compound 17, 3-{[4-(2-phenylethyl)piperazin-1-yl]methyl}benzonitrile] | 1 to 25% | 26 to 49% | 1 to 25% | 1 to 25% | – | – | –
O=C(c1ccco1)N1CCN(Cc2ccccc2)CC1 [Compound 34] | 1 to 25% | 1 to 25% | 1 to 25% | – | – | – | –
O=C(Cc1ccc(Cl)cc1)N1CCN(Cc2ccccc2)CC1 [Compound 38] | – | – | – | 50 to 100% | 1 to 25% | 1 to 25% | 1 to 25%
O=C(c1ccc(Cl)cc1)N1CCN(Cc2ccccc2)CC1 [Compound 44] | 1 to 25% | 1 to 25% | 1 to 25% | 1 to 25% | – | – | –
O=C(c1coc2ccccc12)N1CCN(Cc2ccccc2)CC1 [Compound 50] | 1 to 25% | 1 to 25% | 1 to 25% | 50 to 100% | – | – | –
FC(F)(F)c1ccccc1CCN1CCN(Cc2cc3c(cc2Cl)OCO3)CC1 [Compound 86] | 1 to 25% | 1 to 25% | 26 to 49% | 50 to 100% | – | – | –
FC(F)(F)c1ccc(CN2CCN(CCc3ccccc3C(F)(F)F)CC2)o1 [Compound 87] | 1 to 25% | 1 to 25% | 1 to 25% | 26 to 49% | – | – | –
COC(=O)c1cccc(CN2CCN(CCc3ccccc3)CC2)c1 [Compound 90] | 1 to 25% | 26 to 49% | 1 to 25% | 50 to 100% | – | – | –
FC(F)(F)Oc1cccc(CN2CCN(CCc3ccccc3)CC2)c1 [Compound 91] | 1 to 25% | 26 to 49% | 1 to 25% | 1 to 25% | – | – | –
COc1ccc(CN2CCN(CCc3ccccc3C(F)(F)F)CC2)cc1Cl [Compound 95] | 1 to 25% | 26 to 49% | 1 to 25% | 50 to 100% | – | – | –
CC(C)(C)OC(=O)N1CCN(CCc2ccccc2C(F)(F)F)CC1 [Compound 96] | 26 to 49% | 1 to 25% | 1 to 25% | 50 to 100% | – | – | –
COc1cc(CN2CCN(CCc3ccccc3C(F)(F)F)CC2)c([N+](=O)[O-])cc1OC [Compound 99] | 1 to 25% | 1 to 25% | 1 to 25% | 50 to 100% | – | – | –
FC(F)(F)c1ccccc1CCN1CCN(CC2COc3ccccc3O2)CC1 (centres unmarked) [Compound 100] | 1 to 25% | 26 to 49% | 1 to 25% | 50 to 100% | – | – | –
FC(F)(F)c1ccccc1CCN1CCN(Cc2ccccc2Cl)CC1 [Compound 101] | 1 to 25% | 1 to 25% | 1 to 25% | 50 to 100% | – | – | –
Clc1cc2c(cc1CN1CCN(CCC3CCCCC3)CC1)OCO2 [Compound 102] | 1 to 25% | 1 to 25% | 1 to 25% | 50 to 100% | – | – | –

Source: patent publication US8338430B2, “N-substituted piperazines” (Dow AgroSciences, LLC., priority 2005, dated 2012)
